Measurements as given in PubChem BioAssay (NCI).
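Five compound concentrations were applied to cells in 96-well plates for 48 hours; endpoints were derived by simple linear interpolation of the resulting dose-response curve. GI50: concentration for 50% inhibition of growth. Definition used: TGI = concentration required for complete inhibition of growth.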

Experiments:
Assay in all cases: DTP human tumour cell line panel, 48 h
[1] = tested on: HT29 colon
[2] = tested on: CAKI-1 renal
[3] = tested on: COLO 205 colon
[4] = tested on: NCI-H226 lung
[5] = tested on: SF-295 CNS
[6] = tested on: SR leukemia
[7] = tested on: MDA-MB-435
[8] = tested on: SK-MEL-2 melanoma
[9] = tested on: M14 melanoma
[10] = tested on: OVCAR-3 ovarian
[11] = tested on: HCT-15 colon
[12] = tested on: BT-549 breast
[13] = tested on: K-562 leukemia
[14] = tested on: SN12C renal
[15] = tested on: SK-MEL-28 melanoma
[16] = tested on: SNB-19 CNS
[17] = tested on: EKVX NSCLC
[18] = tested on: HCC-2998 colon
[19] = tested on: HOP-92 NSCLC
[20] = tested on: NCI-H23 lung
[21] = tested on: DU-145 prostate
[22] = tested on: LOX IMVI melanoma
[23] = tested on: NCI-H460 lung
[24] = tested on: SF-268 CNS
[25] = tested on: HCT-116 colon
[26] = tested on: HOP-62 NSCLC
[27] = tested on: OVCAR-5 ovarian
[28] = tested on: SNB-75 CNS

## COc1cc(-c2nc3sc(C)cn3c2/C=C2\C(=O)Nc3ccccc32)c(Br)c(OC)c1OC
[1]
  GI50: 26.9 µM
  TGI: 55.5 µM
[2]
  GI50: 22.6 µM
  TGI: 57 µM
[3]
  GI50: 25.7 µM
  TGI: 66.2 µM
[4]
  GI50: 44.2 µM
  TGI: > 100 µM
[5]
  GI50: 15.6 µM
  TGI: 40.7 µM
[6]
  GI50: 28.3 µM
  TGI: > 100 µM
[7]
  GI50: 4.88 µM
  TGI: 23.2 µM
[8]
  GI50: 33.6 µM
  TGI: > 100 µM
[9]
  GI50: 29.1 µM
  TGI: > 100 µM
[10]
  GI50: 22.9 µM
  TGI: 51 µM
[11]
  GI50: 29.1 µM
  TGI: > 100 µM
[12]
  GI50: 23.3 µM
  TGI: 60.1 µM
[13]
  GI50: 48.4 µM
  TGI: > 100 µM
[14]
  GI50: 45.4 µM
  TGI: > 100 µM
[15]
  GI50: 39.1 µM
  TGI: > 100 µM
[16]
  GI50: 23.9 µM
  TGI: 63.9 µM
[17]
  GI50: 39.3 µM
  TGI: > 100 µM
[18]
  GI50: 29 µM
  TGI: 78 µM
[19]
  GI50: 26.7 µM
  TGI: 77 µM
[20]
  GI50: 30.9 µM
  TGI: > 100 µM
[21]
  GI50: 28.5 µM
  TGI: 72.4 µM
[22]
  GI50: 30.3 µM
  TGI: > 100 µM
[23]
  GI50: 30.5 µM
  TGI: 94.8 µM
[24]
  GI50: 44.7 µM
  TGI: > 100 µM
[25]
  GI50: 26 µM
  TGI: > 100 µM
[26]
  GI50: 26.5 µM
  TGI: 88.7 µM
[27]
  GI50: 55.9 µM
  TGI: > 100 µM
[28]
  GI50: 22.2 µM
  TGI: 51.5 µM
